Assay results as given in ChEMBL document CHEMBL1148069, “The punaglandins: 10-chloroprostanoids from the octocoral Telesto riisei” (J Nat Prod, 1994).
Active and inactive are the calls of the source. No cut-off for these calls is given here.

How the values were obtained:
[1] = test system: L1210; test: Cytotoxicity against mouse L1210 cells; type: functional, cell-based
[2] = test system: Ehrlich; test: Cytotoxicity against mouse EAC cells; type: functional, cell-based

Row | SMILES | Activity [1] | Activity [2]
1 | CCCCC/C=C\C[C@@]1(O)C=C(Cl)C(=O)/C1=C/[C@H](OC(C)=O)[C@H](CCCC(=O)OC)OC(C)=O | Active | Active
2 | CC/C=C\C/C=C\C[C@@]1(O)C=C(Cl)C(=O)/C1=C/[C@H](OC(C)=O)[C@H](CCCC(=O)OC)OC(C)=O | Active | Active
